What follows are compounds tested on lipid peroxidation (cerebral tissue homogenate) (assay: Inhibition test of lipid peroxidation (malondialdehyde formation, thiobarbituric acid method)). Details: 5 μM, rat cerebral tissue supernatant, pH 7.4, 37° C., 30 minutes.

Compared with `Nc1nc(N(CCSSCCN(Cc2ccccc2)c2n[nH]c(N)n2)Cc2ccccc2)n[nH]1` [Compound 7, bis{2-[N-benzyl-N-(5-amino-1,2,4-triazol-3-yl)amino]ethyl}disulfide], `Nc1n[nH]c(N(CCSSCCN(Cc2cccc(Br)c2)c2nc(N)n[nH]2)Cc2cccc(Br)c2)n1` [Compound 13] is higher in “Inhibition (%) Dose 5 μM” value: 31.4% for the first, 51.1% for the second.

Going from `Nc1n[nH]c(N(CCSSCCN(Cc2ccc(Br)cc2)c2nc(N)n[nH]2)Cc2ccc(Br)cc2)n1` [Compound 14] to `COc1ccc(CN(CCSSCCN(Cc2ccc(OC)cc2)c2nc(N)n[nH]2)c2nc(N)n[nH]2)cc1` [Compound 17], the “Inhibition (%) Dose 5 μM” value falls from 49.2% to 22.2%.

Compared with `Nc1n[nH]c(N(CCSSCCN(Cc2ccc(OCc3ccccc3)cc2)c2nc(N)n[nH]2)Cc2ccc(OCc3ccccc3)cc2)n1` [Compound 18], `Nc1n[nH]c(N(CCSSCCN(Cc2cccc([N+](=O)[O-])c2)c2nc(N)n[nH]2)Cc2cccc([N+](=O)[O-])c2)n1` [Compound 19] is lower in “Inhibition (%) Dose 5 μM” value: 71.7% for the first, 21.3% for the second.

Compared with `Nc1n[nH]c(N(CCSSCCN(Cc2ccc([N+](=O)[O-])cc2)c2nc(N)n[nH]2)Cc2ccc([N+](=O)[O-])cc2)n1` [Compound 20], `Nc1n[nH]c(N(CCSSCCN(Cc2cccc(C(F)(F)F)c2)c2nc(N)n[nH]2)Cc2cccc(C(F)(F)F)c2)n1` [Compound 22] is higher in “Inhibition (%) Dose 5 μM” value: 35.2% for the first, 36.6% for the second.

Compared with `Cc1cccc(CN(CCSSCCN(Cc2cccc(C)c2)c2nc(N)n[nH]2)c2nc(N)n[nH]2)c1` [Compound 23], `Cc1ccccc1CN(CCSSCCN(Cc1ccccc1C)c1nc(N)n[nH]1)c1nc(N)n[nH]1` [Compound 24] is lower in “Inhibition (%) Dose 5 μM” value: 48.1% for the first, 41.6% for the second.

First: Cc1ccc(CN(CCSSCCN(Cc2ccc(C)cc2)c2nc(N)n[nH]2)c2nc(N)n[nH]2)cc1 [Compound 25]
Second: Cc1ccc(C)c(CN(CCSSCCN(Cc2cc(C)ccc2C)c2nc(N)n[nH]2)c2nc(N)n[nH]2)c1 [Compound 29]
The “Inhibition (%) Dose 5 μM” value of the first is lower: 51.8% for the first, 70.8% for the second.

First: Cc1cc(C)c(CN(CCSSCCN(Cc2c(C)cc(C)cc2C)c2nc(N)n[nH]2)c2nc(N)n[nH]2)c(C)c1 [Compound 30]
Second: CC(C)(C)c1ccc(CN(CCSSCCN(Cc2ccc(C(C)(C)C)cc2)c2nc(N)n[nH]2)c2nc(N)n[nH]2)cc1 [Compound 33]
The “Inhibition (%) Dose 5 μM” value of the first is higher: 85.8% for the first, 35.6% for the second.

First: Nc1n[nH]c(N(CCSSCCN(Cc2ccc(-c3ccccc3)cc2)c2nc(N)n[nH]2)Cc2ccc(-c3ccccc3)cc2)n1 [Compound 34]
Second: Cc1ccc(CN(CCSSCCN(Cc2ccc(C)c([N+](=O)[O-])c2)c2nc(N)n[nH]2)c2nc(N)n[nH]2)cc1[N+](=O)[O-] [Compound 37]
The “Inhibition (%) Dose 5 μM” value of the first is higher: 55.8% for the first, 31.4% for the second.

Compared with `Nc1n[nH]c(N(CCSSCCN(Cc2cccc3ccccc23)c2nc(N)n[nH]2)Cc2cccc3ccccc23)n1` [Compound 38], `Nc1n[nH]c(N(CCSSCCN(Cc2ccc3ccccc3c2)c2nc(N)n[nH]2)Cc2ccc3ccccc3c2)n1` [Compound 39] is lower in “Inhibition (%) Dose 5 μM” value: 56.8% for the first, 56.3% for the second.

vitamin E [reference compound] was tested, and the “Inhibition (%) Dose 5 μM” value was 12.6%.

Same assay, conditions: 100 μM, rat cerebral tissue supernatant, pH 7.4, 37° C., 30 minutes

First: CC(C)N(CCSSCCN(c1nc(N)n[nH]1)C(C)C)c1nc(N)n[nH]1 [Compound 6]
Second: Nc1nc(N(CCSSCCN(Cc2ccccc2)c2n[nH]c(N)n2)Cc2ccccc2)n[nH]1 [Compound 7, bis{2-[N-benzyl-N-(5-amino-1,2,4-triazol-3-yl)amino]ethyl}disulfide]
The “Inhibition (%) Dose 100 μM” value of the first is lower: 55.7% for the first, 96.0% for the second.

`COc1ccc(CN(CCSSCCN(Cc2ccc(OC)cc2)c2nc(N)n[nH]2)c2nc(N)n[nH]2)cc1` [Compound 17] and `Nc1n[nH]c(N(CCSSCCN(Cc2cccc([N+](=O)[O-])c2)c2nc(N)n[nH]2)Cc2cccc([N+](=O)[O-])c2)n1` [Compound 19] are the same in “Inhibition (%) Dose 100 μM” value: 100% for the first, 100% for the second.

For vitamin E [reference compound], the “Inhibition (%) Dose 100 μM” value was 30.5%.

Reference: patent US5028716A, “3,5-diamino-1,2,4-triazole derivatives” (Taisho Pharmaceutical Co., Ltd., priority 1989, dated 1991)
